The subject of series [1] is WIPI1, GABARAPL1 and LC3B. The series can be described thus: Western blotting of autophagy related proteins in MiaPaCa-2. It is filed as cell-based. As to the method:
FIG. 12: QN523 induces protein expression of autophagy markers dose-dependently.
Significant induction of the protein was detected at concentrations as low as 0.25 μM.
In addition, primary antibodies for LC3B, survivin, cyclin D1, Stat3 and phosphorylated Stat3 (Y705) are from Cell Signaling Technology.
In general terms: A western blot detects proteins with antibodies after separation by electrophoresis.

Another series concerns SNU449. The series can be described thus: MTT assay, SNU449. It counts as cell-based. The following applies: Homo sapiens, SNU-449, HCC cell line. As to the method: (§1) In order to understand its potential selectivity for different types of cancer and choose the best model for further characterization, QN523 was tested in a panel of 12 cancer cell lines with various genetic and pathological backgrounds (Table 2). […] Because of remarkable potency of QN-523 in pancreatic cancer in-depth preclinical studies in this disease model were performed.
(In general: Formazan colour is commonly taken as a measure of viable cells.)

The next series concerns MiaPaCa-2 cells. Put plainly: Ingenuity Pathway Analysis (IPA) of Bru-seq gene lists. To be noted: 1 μM, 24 h. An excerpt:
Top 20 canonical pathways regulated by QN523. Histogram represents percentage of genes regulated in the pathway; numbers on the histogram are total numbers of genes in the specific pathway. […] Orange line represents statistical significance in regulation of the indicated pathway.

A further series relates to MiaPaCa-2 xenograft. Put plainly: MiaPaCa-2 xenograft in NOD/SCID mice. It counts as in vivo. As to the method:
FIG. 2A-E: QN523 inhibits tumor growth of MiaPaCa-2 xenograft without systemic cytotoxicity. A) Tumor volume of MiaPaCa-2 xenograft of vehicle or QN523 treated mice. MiaPaCa-2 xenograft was established in NOD/SCID mice. When tumor size reached 100 mm^3, mice were randomized into vehicle control group (n=5) or treatment group (n=5). QN523 was given by i.p. injection five times a week at 10 mg/kg from day 1 to day 9, then at 20 mg/kg from day 10 to day 44. B) Body weight of vehicle of QN523 treated mice. Representative micrographs of hematoxylin and eosin (H&E)-stained organ sections. Images were taken with Olympus IX83 inverted microscope at 20× magnification. […] D) Tumor volumes of study continued after data shown in panel A. QN523 was given at 20 mg/kg five times a week until day 44. Three mice from each group were euthanized for tissue analysis. Two mice remained in each group after day 44 and QN523 dose was increased to 30 mg/kg from day 45, then to 40 mg/kg from day 51 to day 60. E) Body weight of engrafted mice was not affected by QN523 treatment at 10-40 mg/kg. Error bars indicate Mean±SEM.
To further evaluate the therapeutic potentials of QN523 in pancreatic cancer, MiaPaCa-2 xenograft were implanted in NOD/SCID mice. When tumor size reached 100 mm^3, mice were randomized to either vehicle control (n=5) or QN523 treatment (n=5) group. QN523 was initially given at 10 mg/kg with intraperitoneal administration.

Another series has as its system Panc-1. Put plainly: MTT assay, Panc-1. It counts as cell-based. The following applies: Homo sapiens. As to the method: (§2) Experiments conducted during the course of developing embodiments for the present invention involved performance of a phenotypic screen of a library of 20,000 small-molecules representing five million compounds. […] Subsequently, a lead optimization campaign was performed to synthesize a series of close analogs. Initially, the 50 analogs were tested in three pancreatic cancer cell lines using MTT assay (Table 1).
(§3) For in vitro studies, compounds were dissolved in DMSO at 10 mM as stock solutions and stored at −20° C. For in vivo studies, QN523 was dissolved in a vehicle containing 5% DMSO, 35% propylene glycol and 60% saline, and administered at 100 uL through intraperitoneal injections.

A further series deals with SNU475. Put plainly: MTT assay, SNU475. It is filed as cell-based. The following applies: Homo sapiens, SNU-475, HCC cell line. As to the method: as §1
The test system of series [2] is panel of 12 cancer cell lines. The series can be described thus: MTT assay, panel of 12 cancer cell lines. It counts as cell-based. The following applies: range over the panel; read-out: IC50 values across all 12 cell lines. As to the method:
as §1

Series [3] concerns MiaPaCa-2. The series can be described thus: Colony formation assay, MiaPaCa-2. It counts as cell-based. The following applies: 0.1 μM; 24 h treatment. The source says:
A) QN523 inhibits colony formation in PDAC cell lines. […] Data points represent Mean±SD from three independent experiments.
The cytotoxicity of QN523 was further evaluated in three pancreatic cancer cell lines using colony formation assay. Using numbers and sizes of colonies as the experimental readout, this long-term assay estimates both anti-proliferative and cytotoxic effect.

The subject of series [4] is MiaPaCa-2. The series can be described thus: MTT assay, MiaPaCa-2. As to the method:
Cells were treated with QN523 for 1, 4, 8, 24, 48, 72 h and left in culture in fresh media. MTT assay was performed 72 h after initiation of treatment. Data points represent Mean±SD from three independent experiments.
as §2, §3

The structures appear in SMILES notation. Entries after “also recorded” stand apart in the source; their conditions may differ. Where two headings read alike, the source gives them in different places. Where only a bound is given, the exact number is not on record here.

Broadly, the IC50 is the concentration needed to halve the response being measured.

With `O=C(Nc1cccc2cccnc12)c1cnccn1` [QN523, Pyrazine-2-carboxylic acid quinolin-8-ylamide], the “lowest concentration with significant induction of WIPI1 protein” value in [1] (72 h) was 0.25 µM. The “autophagy-related markers WIPI1, GABARAPL1 and LC3B” value in series [1] (72 h treatment, western blotting) is “Accumulation”. For the same molecule, the IC50 in the series with SNU449 was 400 nM; with Panc-1 (PANC-1, read-out: IC50 Panc-1), 500 nM; in the series with Panc-1 (PANC-1, read-out: IC50 Values Panc-1), 500 ± 70 nM; with SNU475, 2670 nM; in series [2] it was 100 to 5700 nM; in the series on MiaPaCa-2 [4] (Homo sapiens, MIA PaCa-2, read-out: IC50 Mia PaCa-2, MTT assay, PDAC cell line) it was 110 nM. Also, the IC50 with MiaPaCa-2 [4] (Homo sapiens, MIA PaCa-2, read-out: IC50 Values MiaPaCa-2, MTT assay, Mean ± SD, three independent experiments) was 110 ± 30 nM; in the series on MiaPaCa-2 [4] (read-out: IC50 Mia PaCa-2, MTT assay, PDAC cell line), approximately 100 nM. Besides, the “genes up-regulated in unfolded protein response, ER stress pathway and circadian rhythm signaling” value with MiaPaCa-2 cells is on record as “about 25%”. For the same molecule, in the series with MiaPaCa-2 xenograft (10 mg/kg i.p., day 1 to day 9), the “delay in tumor growth” value is “no significant delay in tumor growth”. In addition, in the series with MiaPaCa-2 xenograft (20 mg/kg i.p. from day 10, p<0.01), the “day from which xenograft growth was delayed” value is not below 17 days. In the series on MiaPaCa-2 xenograft (30 mg/kg from day 45, 40 mg/kg day 51 to 60, two mice), the “tumor growth at higher doses” value is “able to delay growth of the tumors”. Besides, the “symptoms of gross toxicity (weakness, weight loss, lethargy)” value in the series with MiaPaCa-2 xenograft (10-20 mg/kg i.p., 44 days) is reported as “No symptoms of gross toxicity”. Further, the “body weight of engrafted mice” value with MiaPaCa-2 xenograft (10-40 mg/kg) was “not affected”. Further, in the series with MiaPaCa-2 xenograft (after 44-day treatment), the “H&E stained organ sections (liver, kidney, heart, lung, spleen, pancreas)” value is listed as “did not reveal major histopathological changes”. In the series with MiaPaCa-2 xenograft (day 44, 10 then 20 mg/kg i.p. five times a week), this molecule came in with a mean tumor volume of 259±38 mm^3. Further, the “inhibition of tumor growth” value in the series with MiaPaCa-2 xenograft (day 44 versus vehicle control) is on record as 80%. In the series with MiaPaCa-2 xenograft (doses as high as 40 mg/kg), the systemic toxicity result is listed as “no systemic toxicity”. Also, the “Ki67 in tumor tissues” value in the series on MiaPaCa-2 xenograft (immunohistochemistry of xenograft sections) is listed as “decreased Ki67 levels; also recorded: decreased Ki67 index”. The “suppression of MiaPaCa-2 colonies” value with MiaPaCa-2 [3] is reported as “complete suppression of MiaPaCa-2 colonies”. The “cytotoxicity versus treatment time” value in the series with MiaPaCa-2 [4] (treated 1, 4, 8, 24, 48, 72 h, washed, MTT at 72 h) is “time dependent cytotoxicity effect”.

These data come from patent publication US10457662B2, “Substituted amides for treating and preventing cancer” (The Regents of the University of Michigan, priority 2015, dated 2019).
